In US9568467B2, “Inhibitors of micro-RNAs for use for preventing and/or attenuating skin ageing” (CHANEL PARFUMS BEAUTE, priority 2012, dated 2017):

How the values were obtained:
Assay type in all cases: cell-based
[1] = tested on: miR-152; assay: Relative quantification of miR-152 level by Real Time PCR in treated or transfected fibroblasts; settings: primary human fibroblasts, 48 hours treatment, concentration indicated in FIG. 13 (not given); control = 1.00±0.01
Procedure: (§1) Neonatal Human Primary Dermal Fibroblasts (HDFn, Cascade, Invitrogen, Carlsbad, Calif., USA) were cultured in 106 medium added with LSGS growth supplements (Cascade). Cells were passaged usually once a week, at each passage the harvested cells number and seeded cell number were recorded in order to calculate the population doublings occurring between passages and the population doubling time. At each passage different aliquots of the cells were harvested to extract in triplicate RNA and proteins and an aliquot was submitted to senescence activated β-galactosidase staining in order to assay the senescent or non-senescent state of the cells. […]
(§2) Total RNA from cells was isolated using mirVana mirRNA Isolation Kit (Ambion) by following the manufacturer's protocol for total RNA extraction. Total RNA was quantified using a NanoDrop Spectophotometer (Thermo Scientific, Delaware, USA) and RNA quality was controlled on an agarose gel. […] The expression of each gene and miR was defined from the threshold cycle (Ct), and relative expression levels were calculated by using the 2-ΔΔCt method after normalization with reference to the expression of the housekeeping gene U18.

[2] = tested on: miR-134; assay: Relative quantification of miR-134 level by Real Time PCR in treated or transfected fibroblasts; settings: primary human fibroblasts, 48 hours treatment, concentration indicated in FIG. 12 (not given); control = 1.00±0.01
Procedure: as §1, §2

[3] = tested on: primary human fibroblasts; assay: Cell proliferation, BrdU pulse and flow cytometry after transfection; settings: 96 hours after transfection, 3 h BrdU pulse; negative control 26%
Procedure: (§3) Neonatal Human Primary Dermal Fibroblasts (HDFn, Cascade, Invitrogen, Carlsbad, Calif., USA) were cultured in 106 medium added with LSGS growth supplements (Cascade). Cells were passaged usually once a week, at each passage the harvested cells number and seeded cell number were recorded in order to calculate the population doublings occurring between passages and the population doubling time. At each passage different aliquots of the cells were harvested to extract in triplicate RNA and proteins and an aliquot was submitted to senescence activated β-galactosidase staining in order to assay the senescent or non-senescent state of the cells.
(§4) Human primary fibroblasts were transfected with human pre-miR 134, anti-miR-134, pre-miR-152, anti-miR-152 and scramble sequence as negative control (Ambion, Tex., USA) using the Lipofecatmine RNAimax transfection reagent (Invitrogen) according to manufacturer protocols. 24 hrs after transfection, the medium was removed and replaced with fresh medium.
Methods used to evaluate cell proliferation are generally based on incorporation of thymidine analogues such as 3H thymidine or bromodeoxyuridine (BrdU) during DNA synthesis. […] Cell cycle was analysed using a FACS Calibur flow cytometer (BD Biosciences, San Jose, Calif., USA). Fifteen thousand events were evaluated using the Cell Quest (BD) and Modfit LT (Verity Software; BD) programs.

[4] = tested on: ITGA9 mRNA; assay: Relative quantification of ITGA9 mRNA level by Real Time PCR after transfection; settings: human dermal fibroblasts, 96 hours after transfection
Procedure: as §1, §2

[5] = tested on: ITGA5; assay: Western blot of ITGA5 protein level after transfection; settings: human fibroblasts after transfection; β-Actin loading control
Procedure: as §3, §4
Total cell extracts were resolved on a SDS polyacrylamide gel, blotted on a Hybond P PVDF membrane (G&E Healthcare, UK). […]

[6] = tested on: ITGA5 mRNA; assay: Relative quantification of ITGA5 mRNA level by Real Time PCR after transfection; settings: human dermal fibroblasts, 96 hours after transfection
Procedure: as §1, §2

## O.Oc1cc(O)c2c(c1)O[C@H](c1ccc(O)c(O)c1)[C@@H](O)C2 [Compound 2, Catechine Hydrate]
[1]
  expression of miR-152 in treated cells (relative quantification): 0.769±0.03

## O=C(O[C@@H]1Cc2c(O)cc(O)cc2O[C@@H]1c1cc(O)c(O)c(O)c1)c1cc(O)c(O)c(O)c1 [Compound 4, Epigallocatechine Gallate]
[2]
  expression of miR-134 in treated cells (relative quantification): 0.603±0.03
[1]
  expression of miR-152 in treated cells (relative quantification): 0.804±0.05

## C[C@@H]1O[C@@H](O[C@@H]2[C@@H](O)[C@H](OCCc3ccc(O)c(O)c3)O[C@H](CO)[C@H]2OC(=O)/C=C/c2ccc(O)c(O)c2)[C@H](O)[C@H](O)[C@H]1O [Compound 5, Verbascoside]
[2]
  expression of miR-134 in treated cells (relative quantification): 0.734±0.05

## miR-134: human pre-miR 134 (Ambion) transfected into fibroblasts; mature miR-134 SEQ ID No. 1 ugugacugguugaccagagggg (UGUGACUGGUUGACCAGAGGGG; delivered as commercial pre-miR precursor, further chemistry not given here; listed as Homo sapiens)
[3]
  percentage of BrdU positive primary human fibroblasts: 19%
[4]
  ITGA9 mRNA level reduction: 20%

## miR-152: human pre-miR-152 (Ambion) transfected into fibroblasts; mature miR-152 SEQ ID No. 2 UCAGUGCAUGACAGAACUUGG (delivered as commercial pre-miR precursor, further chemistry not given here; listed as Homo sapiens)
[5]
  ITGA5 protein level (Western blot): significant decrease
[3]
  percentage of BrdU positive primary human fibroblasts: 18%
[4]
  ITGA9 mRNA level reduction: 40%
[6]
  ITGA5 mRNA level reduction: 30%
